Results as given in the NIST ThermoML archive (doi:10.1016/j.tca.2011.12.010).
“And” between values parts separate entries of the source, which are not always exact repeats. Identical values can stand only once. Numbers after ± are expanded uncertainties.

Assay: molar heat capacity at constant pressure
Conditions: 101.33 kPa, Small sample (50 mg) DSC

O=[N+]([O-])[O-].O=[N+]([O-])[O-].O=[N+]([O-])[O-].O=[N+]([O-])[O-].[K+].[K+].[Mg+2] [bis-potassium magnesium nitrate]
Conditions	molar heat capacity at constant pressure
298.15 K, Crystal 2	308 ± 6.2 J/K/mol
299 K, Crystal 2	308.7 ± 6.2 J/K/mol
300 K, Crystal 2	309.8 ± 6.2 J/K/mol
301 K, Crystal 2	310.5 ± 6.2 J/K/mol
302 K, Crystal 2	310.8 ± 6.2 J/K/mol
303 K, Crystal 2	311.5 ± 6.2 J/K/mol
304 K, Crystal 2	312.2 ± 6.2 J/K/mol
305 K, Crystal 2	312.9 ± 6.3 J/K/mol
306 K, Crystal 2	314 ± 6.3 J/K/mol
307 K, Crystal 2	314.7 ± 6.3 J/K/mol
308 K, Crystal 2	315.7 ± 6.3 J/K/mol
309 K, Crystal 2	316.4 ± 6.3 J/K/mol
310 K, Crystal 2	317.5 ± 6.4 J/K/mol
311 K, Crystal 2	318.5 ± 6.4 J/K/mol
312 K, Crystal 2	319.2 ± 6.4 J/K/mol
313 K, Crystal 2	319.9 ± 6.4 J/K/mol
314 K, Crystal 2	322 ± 6.4 J/K/mol
315 K, Crystal 2	322 ± 6.4 J/K/mol
316 K, Crystal 2	322.7 ± 6.5 J/K/mol
317 K, Crystal 2	323.8 ± 6.5 J/K/mol
318 K, Crystal 2	324.8 ± 6.5 J/K/mol
319 K, Crystal 2	325.9 ± 6.5 J/K/mol
320 K, Crystal 2	326.9 ± 6.5 J/K/mol
321 K, Crystal 2	328 ± 6.6 J/K/mol
325 K, Crystal 2	329 ± 6.6 J/K/mol
326 K, Crystal 2	328 ± 6.6 J/K/mol
327 K, Crystal 2	329.7 ± 6.6 J/K/mol
328 K, Crystal 2	330.4 ± 6.6 J/K/mol
329 K, Crystal 2	331.1 ± 6.6 J/K/mol
330 K, Crystal 2	331.1 ± 6.6 J/K/mol
331 K, Crystal 2	331.8 ± 6.6 J/K/mol
332 K, Crystal 2	332.9 ± 6.7 J/K/mol
333 K, Crystal 2	334.3 ± 6.7 J/K/mol
334 K, Crystal 2	334.3 ± 6.7 J/K/mol
335 K, Crystal 2	334.6 ± 6.7 J/K/mol
336 K, Crystal 2	335.3 ± 6.7 J/K/mol
337 K, Crystal 2	335.7 ± 6.7 J/K/mol
338 K, Crystal 2	336.4 ± 6.7 J/K/mol
339 K, Crystal 2	336.7 ± 6.7 J/K/mol
340 K, Crystal 2	337.1 ± 6.7 J/K/mol
341 K, Crystal 2	338.1 ± 6.8 J/K/mol
342 K, Crystal 2	338.5 ± 6.8 J/K/mol
343 K, Crystal 2	338.8 ± 6.8 J/K/mol
344 K, Crystal 2	339.9 ± 6.8 J/K/mol
345 K, Crystal 2	341.3 ± 6.8 J/K/mol
346 K, Crystal 2	342 ± 6.8 J/K/mol
347 K, Crystal 2	341.6 ± 6.8 J/K/mol
348 K, Crystal 2	340.6 ± 6.8 J/K/mol
349 K, Crystal 2	340.6 ± 6.8 J/K/mol
350 K, Crystal 2	340.9 ± 6.8 J/K/mol
351 K, Crystal 2	341.3 ± 6.8 J/K/mol
352 K, Crystal 2	342 ± 6.8 J/K/mol
353 K, Crystal 2	342.7 ± 6.9 J/K/mol
354 K, Crystal 2	343.4 ± 6.9 J/K/mol
355 K, Crystal 2	344.1 ± 6.9 J/K/mol
356 K, Crystal 2	344.8 ± 6.9 J/K/mol
357 K, Crystal 2	345.5 ± 6.9 J/K/mol
358 K, Crystal 2	346.2 ± 6.9 J/K/mol
359 K, Crystal 2	346.9 ± 6.9 J/K/mol
360 K, Crystal 2	347.6 ± 7 J/K/mol
361 K, Crystal 2	348.3 ± 7 J/K/mol
362 K, Crystal 2	349.3 ± 7 J/K/mol
363 K, Crystal 2	350.4 ± 7 J/K/mol
364 K, Crystal 2	351.4 ± 7 J/K/mol
365 K, Crystal 2	352.5 ± 7.1 J/K/mol
366 K, Crystal 2	353.5 ± 7.1 J/K/mol
367 K, Crystal 2	354.6 ± 7.1 J/K/mol
368 K, Crystal 2	355.3 ± 7.1 J/K/mol
369 K, Crystal 2	356 ± 7.1 J/K/mol
370 K, Crystal 2	356.7 ± 7.1 J/K/mol
371 K, Crystal 2	357.7 ± 7.2 J/K/mol
372 K, Crystal 2	357.8 ± 7.2 J/K/mol
373 K, Crystal 2	358.6 ± 7.2 J/K/mol
374 K, Crystal 2	360.4 ± 7.2 J/K/mol
375 K, Crystal 2	362.7 ± 7.3 J/K/mol
376 K, Crystal 2	367.5 ± 7.4 J/K/mol
377 K, Crystal 2	372.4 ± 7.4 J/K/mol
378 K, Crystal 2	374.9 ± 7.5 J/K/mol
379 K, Crystal 2	375.6 ± 7.5 J/K/mol
380 K, Crystal 2	375.8 ± 7.5 J/K/mol
381 K, Crystal 2	376 ± 7.5 J/K/mol
382 K, Crystal 2	376.3 ± 7.5 J/K/mol
383 K, Crystal 2	377.7 ± 7.6 J/K/mol
384 K, Crystal 2	379.1 ± 7.6 J/K/mol
385 K, Crystal 2	380.8 ± 7.6 J/K/mol
386 K, Crystal 2	381.9 ± 7.6 J/K/mol
387 K, Crystal 2	382.2 ± 7.6 J/K/mol
388 K, Crystal 2	382.6 ± 7.7 J/K/mol
389 K, Crystal 2	385 ± 7.7 J/K/mol
390 K, Crystal 2	386.8 ± 7.7 J/K/mol
391 K, Crystal 2	388.2 ± 7.8 J/K/mol
392 K, Crystal 2	389.6 ± 7.8 J/K/mol
393 K, Crystal 2	391.3 ± 7.8 J/K/mol
394 K, Crystal 2	393.8 ± 7.9 J/K/mol
395 K, Crystal 2	395.2 ± 7.9 J/K/mol
396 K, Crystal 2	397.6 ± 8 J/K/mol
397 K, Crystal 2	399.7 ± 8 J/K/mol
398 K, Crystal 2	401.5 ± 8 J/K/mol
399 K, Crystal 2	403.2 ± 8.1 J/K/mol
400 K, Crystal 2	405.3 ± 8.1 J/K/mol
401 K, Crystal 2	409.5 ± 8.2 J/K/mol
402 K, Crystal 2	412.7 ± 8.3 J/K/mol
403 K, Crystal 2	422.1 ± 8.5 J/K/mol and 428.4 ± 8.6 J/K/mol
403.15 K, Crystal 2	428.4 ± 8.6 J/K/mol
404 K, Crystal 2	811 ± 19 J/K/mol
405 K, Crystal 1	1042.3 ± 21 J/K/mol
406 K, Crystal 1	900.2 ± 18 J/K/mol
407 K, Crystal 1	714.4 ± 15 J/K/mol
408 K, Crystal 1	611.1 ± 12 J/K/mol
409 K, Crystal 1	562.5 ± 11 J/K/mol
410 K, Crystal 1	518 ± 10 J/K/mol
411 K, Crystal 1	464.1 ± 9.3 J/K/mol
412 K, Crystal 1	426.3 ± 8.5 J/K/mol
413 K, Crystal 1	409.2 ± 8.2 J/K/mol
414 K, Crystal 1	403.6 ± 8.1 J/K/mol
415 K, Crystal 1	402.9 ± 8.1 J/K/mol
415.15 K, Crystal 1	402.9 ± 8.1 J/K/mol
416 K, Crystal 1	403.2 ± 8.1 J/K/mol
417 K, Crystal 1	403.6 ± 8.1 J/K/mol
418 K, Crystal 1	404.3 ± 8.1 J/K/mol
419 K, Crystal 1	405.3 ± 8.1 J/K/mol
420 K, Crystal 1	406.4 ± 8.1 J/K/mol
421 K, Crystal 1	409.2 ± 8.2 J/K/mol
422 K, Crystal 1	408.5 ± 8.2 J/K/mol
423 K, Crystal 1	407.8 ± 8.2 J/K/mol
424 K, Crystal 1	407.3 ± 8.1 J/K/mol
425 K, Crystal 1	408.5 ± 8.2 J/K/mol
426 K, Crystal 1	406.3 ± 8.1 J/K/mol
427 K, Crystal 1	405.9 ± 8.1 J/K/mol
428 K, Crystal 1	404.1 ± 8.1 J/K/mol
429 K, Crystal 1	403.2 ± 8.1 J/K/mol
430 K, Crystal 1	405 ± 8.1 J/K/mol and 410 ± 8.2 J/K/mol
431 K, Crystal 1	407.1 ± 8.1 J/K/mol
432 K, Crystal 1	409.5 ± 8.2 J/K/mol
433 K, Crystal 1	412.7 ± 8.3 J/K/mol
434 K, Crystal 1	415.1 ± 8.3 J/K/mol
435 K, Crystal 1	417.2 ± 8.3 J/K/mol
436 K, Crystal 1	419 ± 8.4 J/K/mol
437 K, Crystal 1	417.6 ± 8.4 J/K/mol
438 K, Crystal 1	420 ± 8.4 J/K/mol
439 K, Crystal 1	421.4 ± 8.4 J/K/mol
440 K, Crystal 1	425.3 ± 8.5 J/K/mol
441 K, Crystal 1	427.7 ± 8.6 J/K/mol
442 K, Crystal 1	429.8 ± 8.6 J/K/mol
443 K, Crystal 1	431.6 ± 8.6 J/K/mol
444 K, Crystal 1	434 ± 8.7 J/K/mol
445 K, Crystal 1	436.5 ± 8.7 J/K/mol
446 K, Crystal 1	438.9 ± 8.8 J/K/mol
447 K, Crystal 1	441.4 ± 8.8 J/K/mol
448 K, Crystal 1	444.5 ± 8.9 J/K/mol
449 K, Crystal 1	449.1 ± 9 J/K/mol
450 K, Crystal 1	451.5 ± 9 J/K/mol
451 K, Crystal 1	454.3 ± 9.1 J/K/mol
452 K, Crystal 1	458.9 ± 9.2 J/K/mol
453 K, Crystal 1	463.4 ± 9.3 J/K/mol
454 K, Crystal 1	469 ± 9.4 J/K/mol
455 K, Crystal 1	476 ± 9.5 J/K/mol
456 K, Crystal 1	484.1 ± 9.7 J/K/mol
457 K, Crystal 1	494.9 ± 9.9 J/K/mol
458 K, Crystal 1	508.9 ± 10 J/K/mol and 511.7 ± 10 J/K/mol
458.15 K, Crystal 1	511.7 ± 10 J/K/mol
459 K, Crystal 1	532.4 ± 11 J/K/mol
460 K, Crystal 1	561.4 ± 11 J/K/mol
